Columns and labels:
JH2 domain of human Tyk2 = JH2 domain of human Tyk2 (Homo sapiens (Human), UniProt P29597); assay: JH2 Biochemical Assay (TR-FRET probe displacement); type: binding
Method: The inhibitory potency of compounds of the disclosure against the kinase activity of recombinantly generated JH2 domain of human Tyk2 was evaluated in a plate-based assay using a TR-FRET assay platform. Briefly, 2 nM of recombinant JH2 domain [10×His-tagged TYK2 JH2 domain (amino acid 575-876)] was combined with 2 nM probe ((S)-6-amino-9-(2-carboxy-4-((1-(3-(8-methyl-5-(methylamino)-8H-imidazo[4,5-d]thiazolo[5,4-b]pyridin-2-yl)phenyl)ethyl)carbamoyl)phenyl)-3-iminio-5-sulfo-3H-xanthene-4-sulfonate), 0.1 nM Tb-labeled anti-His antibody, and compounds of disclosure for 60 minutes. Compounds are tested at either 10 μM or 1 μM top concentration, 10 points of 3-fold dilution. The TR-FRET signal inversely correlates to the amount of probe displaced by compounds and signal was calculated by taking the ratio of fluorescence at 520 nm and 495 nm. The data was normalized and the percent activity versus log concentration of compound was fitted with a 4-parameter logistic model to generate IC50 curves.

Tyk2 = Tyk2 (Homo sapiens (Human), UniProt P29597); assay: pSTAT4 Cell Assay (MSD, NK92 cells); type: cell-based; details: MSD
[1] = TR-FRET probe displacement, JH2 domain of human Tyk2
[2] = JH2 domain of human Tyk2, TR-FRET probe displacement

Chain of JH2 domain of human Tyk2 (P29597 575-876): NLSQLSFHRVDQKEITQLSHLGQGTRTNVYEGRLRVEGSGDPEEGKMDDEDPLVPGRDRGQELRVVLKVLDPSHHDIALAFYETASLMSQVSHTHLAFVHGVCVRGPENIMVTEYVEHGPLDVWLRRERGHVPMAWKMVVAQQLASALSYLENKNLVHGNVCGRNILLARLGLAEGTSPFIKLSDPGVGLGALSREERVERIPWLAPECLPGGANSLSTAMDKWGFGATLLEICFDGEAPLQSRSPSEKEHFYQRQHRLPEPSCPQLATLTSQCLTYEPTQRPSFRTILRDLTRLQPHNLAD
Chain of Tyk2 (P29597 whole entry, the tested form may be a part): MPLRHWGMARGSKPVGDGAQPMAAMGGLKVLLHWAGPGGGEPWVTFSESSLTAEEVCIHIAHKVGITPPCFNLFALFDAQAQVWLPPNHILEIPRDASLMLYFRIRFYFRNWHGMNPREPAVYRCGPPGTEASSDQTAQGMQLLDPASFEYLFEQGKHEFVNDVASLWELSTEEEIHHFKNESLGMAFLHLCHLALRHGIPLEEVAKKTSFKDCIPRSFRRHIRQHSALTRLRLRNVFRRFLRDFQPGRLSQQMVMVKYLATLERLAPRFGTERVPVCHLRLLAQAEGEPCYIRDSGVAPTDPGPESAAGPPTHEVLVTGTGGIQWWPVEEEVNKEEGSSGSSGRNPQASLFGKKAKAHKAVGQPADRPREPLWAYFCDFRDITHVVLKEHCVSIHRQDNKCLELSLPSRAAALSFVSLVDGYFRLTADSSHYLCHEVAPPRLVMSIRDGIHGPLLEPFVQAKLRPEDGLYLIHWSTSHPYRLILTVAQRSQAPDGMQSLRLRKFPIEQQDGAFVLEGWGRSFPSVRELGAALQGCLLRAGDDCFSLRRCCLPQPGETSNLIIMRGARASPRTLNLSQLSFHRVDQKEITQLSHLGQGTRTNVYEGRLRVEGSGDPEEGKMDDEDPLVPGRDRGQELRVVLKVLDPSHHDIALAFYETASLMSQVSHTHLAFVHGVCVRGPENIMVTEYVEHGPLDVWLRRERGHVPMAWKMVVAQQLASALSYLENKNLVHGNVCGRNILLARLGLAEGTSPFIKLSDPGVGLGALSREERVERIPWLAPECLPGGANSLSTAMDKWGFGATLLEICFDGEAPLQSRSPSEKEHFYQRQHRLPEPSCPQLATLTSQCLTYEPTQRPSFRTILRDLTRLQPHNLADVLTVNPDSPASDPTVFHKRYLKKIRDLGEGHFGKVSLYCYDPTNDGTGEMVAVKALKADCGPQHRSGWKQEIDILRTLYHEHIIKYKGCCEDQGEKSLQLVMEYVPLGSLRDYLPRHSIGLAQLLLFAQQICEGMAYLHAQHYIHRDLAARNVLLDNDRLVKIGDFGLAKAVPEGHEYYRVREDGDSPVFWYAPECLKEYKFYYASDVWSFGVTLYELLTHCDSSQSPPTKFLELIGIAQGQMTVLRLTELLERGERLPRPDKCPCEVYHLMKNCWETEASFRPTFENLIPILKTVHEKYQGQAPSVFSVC

Compound	IC50 (JH2 domain of human Tyk2; [1]) [nM]	IC50 (Tyk2) [nM]	IC50 (JH2 domain of human Tyk2; [2]) [nM]
CC(=O)Nc1cc(Nc2cc(C)nc(C(C)(F)F)n2)c([C@H]2CCCO2)cn1 (single isomer, unassigned) [Example 278, (R)-N-(4-((2-(1,1-difluoroethyl)-6-methylpyrimidin-4-yl)amino)-5-(tetrahydrofuran-2-yl)pyridin-2-yl)acetamide or (S)—N-(4-((2-(1,1-difluoroethyl)-6-methylpyrimidin-4-yl)amino)-5-(tetrahydrofuran-2-yl)pyridin-2-yl)acetamide]	10 to 100	≥ 1000	–
CC(=O)Nc1cc(Nc2cc(C)nc(C(C)(F)F)n2)c([C@@H]2CCCO2)cn1 (single isomer, unassigned) [Example 279, (S)—N-(4-((2-(1,1-difluoroethyl)-6-methylpyrimidin-4-yl)amino)-5-(tetrahydrofuran-2-yl)pyridin-2-yl)acetamide or (R)-N-(4-((2-(1,1-difluoroethyl)-6-methylpyrimidin-4-yl)amino)-5-(tetrahydrofuran-2-yl)pyridin-2-yl)acetamide]	10 to 100	100 to 1000	–
CC(=O)Nc1cc(Nc2cc(C)nc(C(C)(F)F)n2)c(OC[C@@H]2CCCO2)cn1 (single isomer, unassigned) [Example 293, (S)-N-(4-((2-(1,1-difluoroethyl)-6-methylpyrimidin-4-yl)amino)-5-((tetrahydrofuran-2-yl)methoxy)pyridin-2-yl)acetamide or (R)-N-(4-((2-(1,1-difluoroethyl)-6-methylpyrimidin-4-yl)amino)-5-((tetrahydrofuran-2-yl)methoxy)pyridin-2-yl)acetamide]	≤ 10	10 to 100	–
CC(=O)Nc1cc(Nc2cc(C)nc(C(C)(F)F)n2)c(-c2cccc([C@@H]3CN(C)CCO3)n2)cn1 (single isomer, unassigned) [Example 641, (S)-N-(4′-((2-(1,1-difluoroethyl)-6-methylpyrimidin-4-yl)amino)-6-(4-methylmorpholin-2-yl)-[2,3′-bipyridin]-6′-yl)acetamide or (R)-N-(4′-((2-(1,1-difluoroethyl)-6-methylpyrimidin-4-yl)amino)-6-(4-methylmorpholin-2-yl)-[2,3′-bipyridin]-6′-yl)acetamide]	–	≤ 10	≤ 10
CC(=O)Nc1cc(Nc2cc(C)nc(C(C)(F)F)n2)c(-c2ccc([C@@H]3CN(C)CCO3)cn2)cn1 (single isomer, unassigned) [Example 643, (R)-N-(4′-((2-(1,1-difluoroethyl)-6-methylpyrimidin-4-yl)amino)-5-(4-methylmorpholin-2-yl)-[2,3′-bipyridin]-6′-yl)acetamide or (S)-N-(4′-((2-(1,1-difluoroethyl)-6-methylpyrimidin-4-yl)amino)-5-(4-methylmorpholin-2-yl)-[2,3′-bipyridin]-6′-yl)acetamide]	–	≤ 10	≤ 10
CC(=O)Nc1cc(Nc2cc(C)nc(C(C)(F)F)n2)c(-c2ccc([C@H]3CN(C)CCO3)cn2)cn1 (single isomer, unassigned) [Example 644, (S)-N-(4′-((2-(1,1-difluoroethyl)-6-methylpyrimidin-4-yl)amino)-5-(4-methylmorpholin-2-yl)-[2,3′-bipyridin]-6′-yl)acetamide or (R)-N-(4′-((2-(1,1-difluoroethyl)-6-methylpyrimidin-4-yl)amino)-5-(4-methylmorpholin-2-yl)-[2,3′-bipyridin]-6′-yl)acetamide]	–	≤ 10	≤ 10
CC(=O)Nc1cc(Nc2cc(C)nc(C(C)(F)F)n2)c(OC[C@H]2CCC[C@@H](C)O2)cn1 (stereo in doubt) [Example 418, Cis-rac-N-(4-((2-(1,1-difluoroethyl)-6-methylpyrimidin-4-yl)amino)-5-(((2R,6R)-6-methyltetrahydro-2H-pyran-2-yl)methoxy)pyridin-2-yl)acetamide]	–	≤ 10	≤ 10
CC(=O)Nc1cc(Nc2cc(C)nc(C(C)(F)F)n2)c(OC[C@@H]2CCC[C@H](C)O2)cn1 (stereo in doubt) [Example 442, Cis-rac-N-(4-((2-(1,1-difluoroethyl)-6-methylpyrimidin-4-yl)amino)-5-((6-methyltetrahydro-2H-pyran-2-yl)methoxy)pyridin-2-yl)acetamide]	–	10 to 100	10 to 100
CCOc1cnc(NC(C)=O)cc1Nc1cc(C(C)(F)F)ccn1 [Example 2, N-(4-((4-(1,1-difluoroethyl)pyridin-2-yl)amino)-5-ethoxypyridin-2-yl)acetamide]	10 to 100	≥ 1000	–
CC(=O)Nc1cc(Nc2ccnc(C(C)(F)F)n2)c(OC(C)C)cn1 [Example 8, N-(4-((2-(1,1-difluoroethyl)pyrimidin-4-yl)amino)-5-isopropoxypyridin-2-yl)acetamide]	≤ 10	100 to 1000	–
CCOc1cnc(NC(=O)CC)cc1Nc1cc(C)nc(C(C)(F)F)n1 [Example 9, N-(4-((2-(1,1-difluoroethyl)-6-methylpyrimidin-4-yl)amino)-5-ethoxypyridin-2-yl)propionamide]	≤ 10	10 to 100	–
CCOc1cnc(NC(C)=O)cc1Nc1cc(O[C@H]2C[C@@H](OC)C2)cc(C(C)(F)F)n1 [Example 15, N-(4-((6-(1,1-difluoroethyl)-4-((1s,3s)-3-methoxycyclobutoxy)pyridin-2-yl)amino)-5-ethoxypyridin-2-yl)acetamide]	≤ 10	10 to 100	–
COc1cc(Nc2cc(NC(C)=O)ncc2OC)nc(C(C)(F)F)n1 [Example 18, N-(4-((2-(1,1-difluoroethyl)-6-methoxypyrimidin-4-yl)amino)-5-methoxypyridin-2-yl)acetamide]	≤ 10	10 to 100	–
CC(=O)Nc1cc(Nc2cc(C)nc(C(C)(F)F)n2)c(OCC(F)(F)F)cn1 [Example 23, N-(4-((2-(1,1-difluoroethyl)-6-methylpyrimidin-4-yl)amino)-5-(2,2,2-trifluoroethoxy)pyridin-2-yl)acetamide]	≤ 10	100 to 1000	–
CC(=O)Nc1cc(Nc2cc(C)nc(C(C)(F)F)n2)c(OCC(F)F)cn1 [Example 24, N-(5-(2,2-difluoroethoxy)-4-((2-(1,1-difluoroethyl)-6-methylpyrimidin-4-yl)amino)pyridin-2-yl)acetamide]	≤ 10	10 to 100	–
CC(=O)Nc1cc(Nc2cc(C)nc(C(C)(F)F)n2)c(OCCN(C)C)cn1 [Example 25, N-(4-((2-(1,1-difluoroethyl)-6-methylpyrimidin-4-yl)amino)-5-(2-(dimethylamino)ethoxy)pyridin-2-yl)acetamide]	≤ 10	10 to 100	–
CCOc1cnc(NC(=O)COC)cc1Nc1cc(C)nc(C(C)(F)F)n1 [Example 26, N-(4-((2-(1,1-difluoroethyl)-6-methylpyrimidin-4-yl)amino)-5-ethoxypyridin-2-yl)-2-methoxyacetamide]	≤ 10	10 to 100	–
CCOc1cnc(NC(=O)CCOC)cc1Nc1cc(C)nc(C(C)(F)F)n1 [Example 27, N-(4-((2-(1,1-difluoroethyl)-6-methylpyrimidin-4-yl)amino)-5-ethoxypyridin-2-yl)-3-methoxypropanamide]	≤ 10	100 to 1000	–
CC(=O)Nc1cc(Nc2cc(C)nc(C(C)(F)F)n2)c(OCc2ccccc2)cn1 [Example 30, N-(5-(benzyloxy)-4-((2-(1,1-difluoroethyl)-6-methylpyrimidin-4-yl)amino)pyridin-2-yl)acetamide]	≤ 10	≤ 10	–
CCOc1cnc(NC(C)=O)cc1Nc1ccnc(C(C)(C)F)n1 [Example 31, N-(5-ethoxy-4-((2-(2-fluoropropan-2-yl)pyrimidin-4-yl)amino)pyridin-2-yl)acetamide]	≤ 10	10 to 100	–
CCOc1cnc(NC(C)=O)cc1Nc1nc(C(C)(F)F)ncc1F [Example 34, N-(4-((2-(1,1-difluoroethyl)-5-fluoropyrimidin-4-yl)amino)-5-ethoxypyridin-2-yl)acetamide]	10 to 100	≥ 1000	–
CCOc1cnc(NC(C)=O)cc1Nc1nc(C(C)(F)F)nc(C)c1F [Example 35, N-(4-((2-(1,1-difluoroethyl)-5-fluoro-6-methylpyrimidin-4-yl)amino)-5-ethoxypyridin-2-yl)acetamide]	≤ 10	100 to 1000	–
CC(=O)Nc1cc(Nc2ccnc(C(C)(F)F)n2)c(OC2CC2)cn1 [Example 38, N-(5-cyclopropoxy-4-((2-(1,1-difluoroethyl)pyrimidin-4-yl)amino)pyridin-2-yl)acetamide]	≤ 10	100 to 1000	–
COC1CC(COc2cnc(NC(C)=O)cc2Nc2cc(C)nc(C(C)(F)F)n2)C1 (stereo not shown) [Example 40, N-(4-((2-(1,1-difluoroethyl)-6-methylpyrimidin-4-yl)amino)-5-((3-methoxycyclobutyl)methoxy)pyridin-2-yl)acetamide]	≤ 10	10 to 100	–
CC(=O)Nc1cc(Nc2cc(C)nc(C(C)(F)F)n2)c(C)cn1 [Example 41, N-(4-((2-(1,1-difluoroethyl)-6-methylpyrimidin-4-yl)amino)-5-methylpyridin-2-yl)acetamide]	10 to 100	100 to 1000	–
CCc1cnc(NC(C)=O)cc1Nc1cc(C)nc(C(C)(F)F)n1 [Example 42, N-(4-((2-(1,1-difluoroethyl)-6-methylpyrimidin-4-yl)amino)-5-ethylpyridin-2-yl)acetamide]	10 to 100	≥ 1000	–

From patent US20260028365A1 (BIOGEN MA INC., priority 2022, published 2026)
